Measured values published in US20220395443A1, “Oral Care Compositions and Methods” (Colgate-Palmolive Company, priority 2021, published 2022).
Like-named read-outs stand apart in the source and are kept apart here.

Legend:
[1] = test system: Haemophilus parainfluenzae; assay: Growth of nitrate reducing species in optical density assay; format: cell-based; conditions: for Effect on growth of Haemophilus parainfluenzae (in words): 1.5% KNO3 and 0.75% L-arginine alone or in combination, 26 h; for Optical Density (610 nm): pure culture, 0.75% L-arginine, 0.75% KNO3 (so in the source), or 1.5% KNO3 + 0.75% L-arginine by wt. of solution added, measured every two hours for 26 h, control 1.02
Method: The impact of 1.5% KNO3 and 0.75% L-arginine alone or in combination on the growth of one known nitrate reducing species, Haemophilus parainfluenzae, is studied. Pure cultures of each species are grown in the presence of the compounds. Note, the wt. % of the potassium nitrate and L-arginine is relative to the total weight of the solution added to the culture. The growth is monitored by measuring the optical density at 610 nm every two hours for 26 h.

salivary biofilms = assay: In vitro oral biofilm model, simple solutions: total NO3/NO2 in supernatant (colorimetric kit); format: cell-based, human; conditions: for NO3/NO2 (nmole per sample): biofilm supernatant, 2 min treatments twice daily, 5 days, 3% KNO3 and/or 1.5% L-arginine, all with 1.7% TSPP, untreated 5.93; for NO3/NO2 output (in words): repeated treatment with simple solutions
Method: (§1) An in vitro model for oral biofilms is treated with either 3% KNO3 or 1.5% L-arginine alone or in combination as simple solutions. Whole human saliva was used to inoculate sterile hydroxyapatite discs held in a vertical position using a specially designed steel lid as indicated in Kumar et al. (2019). Biofilms in Human Diseases: Treatment and Control Nature, the contents of which are incorporated herein by reference in their entirety.
(§2) Following 6 h of inoculum, biofilms are treated for 2 min with simple solutions, rinsed and returned to fresh, filter-sterilized saliva. Biofilms were treated 2 times per day, with approximately 6 h between treatments for the subsequent 3 days. On the fifth day, biofilms are treated one time in the morning and then harvested approximately 3 h after treatment by sonication. Bacterial pellets are frozen and later subjected to DNA extraction and sequencing of the V3-V4 region of the 16 s ribosomal RNA subunit in order to identify the relative abundance of bacteria present in each sample to the genus level. The final supernatants were also retained, filter-sterilized and tested for total nitrate/nitrite concentrations to determine if any changes in nitrate production could be detected from the biofilm communities.
(§3) For these studies, all solutions were made fresh in dH2O and used within 1 h of being made. Solutions were prepared by weight to contain each of the following: 3% KNO3, 1.5% L-arginine, both by weight of the solution, or no active. Additionally, all solutions contained 1.7% TSPP for additional stabilization. Solution pH values were not adjusted before treatment.
At the end of the experiment, filter sterilized samples were tested for total NO3/NO2 using a colorimetric nitrate/nitrite assay kit (Sigma). Due to low sample volumes, samples were only tested for total NO3/NO2.

[2] = test system: Haemophilus parainfluenzae; assay: In vitro oral biofilm model, simple solutions: 16S V3-V4 sequencing; format: cell-based; conditions: simple solutions: 3% KNO3 and/or 1.5% L-arginine; untreated (PBS) 0.14
Method: as §1, §2, §3
(§4) The composition of the microbiome of each sample is studied to assess the bacterial community shifts induced by treatment with: potassium nitrate alone, L-arginine alone, or potassium nitrate and L-arginine in combination.

[3] = test system: Neisseria flavescens subflava; assay: as above; format: cell-based; conditions: simple solutions: 3% KNO3 and/or 1.5% L-arginine; untreated (PBS) 1.23
Method: as §1, §2, §3, §4

[4] = test system: Prevotella melaninogenica; assay: as above; format: cell-based; conditions: simple solutions: 3% KNO3 and/or 1.5% L-arginine; untreated (PBS) 0.31
Method: as §1, §2, §3, §4

Rothia dentocariosa = assay: as above; format: cell-based
Method: as §1, §2, §3, §4

Veillonella parvula = assay: as above; format: cell-based; conditions: simple solutions: 3% KNO3 and/or 1.5% L-arginine; untreated (PBS) 4.59
Method: as §1, §2, §3, §4

Oral biofilms = assay: Measurement of nitrite in oral biofilms after potassium nitrate challenge; format: cell-based, human; conditions: treated twice a day for five days with simple solutions; total nitrite after five-minute challenge with 5% potassium nitrate; untreated 0.11
Method: Oral biofilms are grown on hydroxyapatite discs in saliva as discussed in the process detailed in Example 3. Over the course of five days, the biofilms receive treatment twice a day. Specifically, the biofilms receive treatment with samples containing simple solutions of water and 3% (by wt.) potassium nitrate and 5% (by wt.) arginine or a simple solution of water and 3% (by wt.) potassium nitrate alone. Following treatment, there is measurement of total nitrite (mg/L) in the biofilms following a five-minute challenge with 5% potassium nitrate.

| SMILES | Effect on growth of Haemophilus parainfluenzae (in words) [1] | Optical Density (610 nm) [1] | NO3/NO2 (nmole per sample) (salivary biofilms) | NO3/NO2 output (in words) (salivary biofilms) | Relative abundance of Haemophilus parainfluenzae [2] | Relative abundance of Neisseria flavescens subflava [3] | Relative abundance of Prevotella melaninogenica [4] | Relative abundance of Rothia dentocariosa (Rothia dentocariosa) | Relative abundance of Veillonella parvula (Veillonella parvula) | Biofilm Nitrite Measurement (Oral biofilms) [mg/L] | Relative abundance of Rothia dentocariosa (Rothia dentocariosa; simple solutions: 3% KNO3 and/or 1.5% L-arginine, untreated (PBS) 0.02) |
| --- | --- | --- | --- | --- | --- | --- | --- | --- | --- | --- | --- |
| O=[N+]([O-])[O-].[K+] [KNO3, potassium nitrate] | no effect on the growth | 0.99 | 6.00 | small increases | 0.04 relative units of abundance | 0.05 relative units of abundance | 0.67 relative units of abundance | 0 relative units of abundance | 0.78 relative units of abundance | 0.8 |  |
| N=C(N)NCCC[C@H](N)C(=O)O [L-arginine] | slightly reduce growth | 0.65 | 6.01 | small increases | 0.83 relative units of abundance | 0.54 relative units of abundance | 0.07 relative units of abundance |  | 3.28 relative units of abundance |  | 0.02 relative units of abundance |
